Laboratory results taken from PMC12371865 (2025).

How the values were obtained:
[1] = test system: hTel (hybrid-1 quadruplex, K+ stabilized) (DNA, G4) TTGGGTTAGGGTTAGGGTTAGGGA; experiment: luminescence titration at 630 nm, Bard fit; details: K+ (50 mM potassium phosphate), pH 7, per base
[2] = test system: d(G5C5)2 (DNA, duplex) GGGGGCCCCC; experiment: luminescence titration at 630 nm, Bard fit; details: K+ (50 mM potassium phosphate), pH 7, per base
[3] = test system: polyG (polyguanylic acid) (RNA, polymer) G; experiment: luminescence quenching and UV-vis hypochromism titration; details: qualitative; enantiomer not stated

K b ([1]; binding-site size 1.4(±0.1)): 5.7(±0.2) × 10^5 M^-1 | K b ([1]; binding-site size 2.7(±0.1)): 2.7(±0.2) × 10^5 M^-1 | K b ([2]; binding-site size 2.1(±0.1)): 7.8(±0.8) × 10^5 M^-1 | K b ([2]; binding-site size 2.2(±0.1)): 1.3(±0.2) × 10^6 M^-1 | binding [3]: yes
SMILES: N#Cc1cccc2nc3c4cccnc4c4ncccc4c3nc12.[Ru+2].c1cnc2c(ccc3nccnc32)n1.c1cnc2c(ccc3nccnc32)n1
